# US20060264460A1 (Wyeth, priority 2005, published 2006)
# pIC50: −log10 of the molar value.
# Molecular target: T1, human Cot/Tpl2 kinase (Homo sapiens, UniProt P41279)
# T1 construct: human Cot/Tpl2 kinase construct encoding residues 30-398; 6His (N); made in house; host or cells: Sf9 insect cells, baculovirus system (BD Biosciences)
# Assay: Tpl2/Cot kinase assay: GST-MEK1 phosphorylation detected by ELISA (DELFIA Eu)
# Assay type: biochemical
# Details: 0.4 nM Tpl2, 35 nM GST-MEK1, 50 uM ATP, 1 h at 30° C.
# Procedure, shortened: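 Substrate phosphorylation (GST-MEK1 Ser217/221) quantified by DELFIA europium ELISA, yielding IC50 values. Reaction: 1 h at 30° C, pH 7.2 MOPS buffer, 50 uM ATP, 35 nM GST-MEK1, 0.4 nM monomeric His-Tpl2 purified from Sf9 cells, compounds at 1% final DMSO; stopped with EDTA.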
# T1 sequence (P41279 30-398): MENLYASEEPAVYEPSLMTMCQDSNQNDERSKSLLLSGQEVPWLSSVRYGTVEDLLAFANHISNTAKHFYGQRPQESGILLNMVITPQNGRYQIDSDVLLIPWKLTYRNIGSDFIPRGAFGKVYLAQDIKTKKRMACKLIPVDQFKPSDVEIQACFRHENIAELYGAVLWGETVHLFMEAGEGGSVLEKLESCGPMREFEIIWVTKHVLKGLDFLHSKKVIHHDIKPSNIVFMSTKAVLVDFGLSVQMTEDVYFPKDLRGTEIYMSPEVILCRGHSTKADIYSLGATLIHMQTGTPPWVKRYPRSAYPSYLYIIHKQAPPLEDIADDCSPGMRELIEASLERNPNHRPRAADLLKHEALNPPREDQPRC
row,pIC50,SMILES
1,6.28,"CN(C)C(=O)c1cc(NCc2cccnc2)cc2c(Nc3ccc(F)c(Cl)c3)c(C#N)cnc12 [Example 94, 4-(3-chloro-4-fluorophenylamino)-3-cyano-N,N-dimethyl-6-(pyridin-3-ylmethylamino)quinoline-8-carboxamide]"
2,6.36,"N#Cc1cnc2c(Br)cc(NCc3cnc[nH]3)cc2c1NC1CCCC1 [Example 96, 6-((1H-imidazol-5-yl)methylamino)-8-bromo-4-(cyclopentylamino)quinoline-3-carbonitrile]"
3,6.64,"N#Cc1cnc2c(Br)cc(NCc3cnc[nH]3)cc2c1NC1CCCCCC1 [Example 97, 6-((1H-imidazol-5-yl)methylamino)-8-bromo-4-(cycloheptylamino)quinoline-3-carbonitrile]"
4,5.82,"CC(C)(C)Nc1c(C#N)cnc2c(Br)cc(NCc3cnc[nH]3)cc12 [Example 98, 6-((1H-imidazol-5-yl)methylamino)-8-bromo-4-(tert-butylamino)quinoline-3-carbonitrile]"
5,4.62,"N#Cc1cnc2ccc(NCc3cccnc3)cc2c1Nc1ccc(C(N)=O)cc1 [Example 99, 4-(3-cyano-6-(pyridin-3-ylmethylamino)quinolin-4-ylamino)benzamide]"
6,< 4.40,"N#Cc1cnc2c(-c3ccsc3)cc(NCc3cccnc3)cc2c1Nc1cccc(Cl)c1 [Example 100, 4-(3-chlorophenylamino)-6-(pyridin-3-ylmethylamino)-8-(thiophen-3-yl)quinoline-3-carbonitrile]"
7,8.39,"N#Cc1cnc2c(Br)cc(NCc3cccc[n+]3[O-])cc2c1Nc1ccc(F)c(Cl)c1 [Example 101, 8-bromo-4-(3-chloro-4-fluorophenylamino)-6-(1-oxypyridin-2-ylmethylamino)quinoline-3-carbonitrile]"
8,5.89,"N#Cc1cnc2c(-c3ccoc3)cc(NCc3cccnc3)cc2c1Nc1ccc(F)c(Cl)c1 [Example 102, 4-(3-chloro-4-fluorophenylamino)-8-(furan-3-yl)-6-(pyridin-3-ylmethylamino)quinoline-3-carbonitrile]"
9,6.29,"CN(C)C(=O)CNc1ccc2ncc(C#N)c(Nc3ccc(F)c(Cl)c3)c2c1 [Example 103, 2-(4-(3-chloro-4-fluorophenylamino)-3-cyanoquinolin-6-ylamino)-N,N-dimethylacetamide]"
10,5.82,"CC(C)(C)Nc1c(C#N)cnc2c(Br)cc(NCc3cccc[n+]3[O-])cc12 [Example 104, 8-bromo-4-(tert-butylamino)-6-(1-oxypyridin-2-ylmethylamino)quinoline-3-carbonitrile]"
11,6.77,"Cc1ncc(CNc2cc(Br)c3ncc(C#N)c(Nc4ccc(F)c(Cl)c4)c3c2)[nH]1 [Example 105, 8-bromo-4-(3-chloro-4-fluorophenylamino)-6-((2-methyl-1H-imidazol-5-yl)methylamino)quinoline-3-carbonitrile]"
12,5.23,"N#Cc1cnc2c(Br)cc(NCc3cnc(-c4ccccc4)[nH]3)cc2c1Nc1ccc(F)c(Cl)c1 [Example 106, 8-bromo-4-(3-chloro-4-fluorophenylamino)-6-((2-phenyl-1H-imidazol-5-yl)methylamino)quinoline-3-carbonitrile]"

# Further lines, the compound ahead of its results:
row,SMILES,pIC50
1,"N#Cc1cnc2c(C(=O)NCc3ccccc3)cc(NCc3cccnc3)cc2c1Nc1cccc(Cl)c1 [Example 80, N-benzyl-4-(3-chlorophenylamino)-3-cyano-6-(pyridin-3-ylmethylamino)quinoline-8-carboxamide]",< 4.40
2,"CC(C)C(=O)Nc1cc(NCc2cccnc2)cc2c(Nc3cccc(Cl)c3)c(C#N)cnc12 [Example 81, N-(4-(3-chlorophenylamino)-3-cyano-6-(pyridin-3-ylmethylamino)quinolin-8-yl)isobutyramide]",< 4.40
3,"CN(C)C(=O)c1cc(NCC2CCCCC2)cc2c(Nc3ccc(F)c(Cl)c3)c(C#N)cnc12 [Example 82, 4-(3-chloro-4-fluorophenylamino)-3-cyano-6-(cyclohexylmethylamino)-N,N-dimethylquinoline-8-carboxamide]",5.41
4,"CN(C)C(=O)c1cc(NCc2nc3ccccc3n2C)cc2c(Nc3ccc(F)c(Cl)c3)c(C#N)cnc12 [Example 83, 4-(3-chloro-4-fluorophenylamino)-3-cyano-N,N-dimethyl-6-((1-methyl-1H-benzo[d]imidazol-2-yl)methylamino)quinoline-8-carboxamide]",7.20
5,"CN(C)C(=O)c1cc(NCc2ccco2)cc2c(Nc3ccc(F)c(Cl)c3)c(C#N)cnc12 [Example 84, 4-(3-chloro-4-fluorophenylamino)-3-cyano-6-(furan-2-ylmethylamino)-N,N-dimethylquinoline-8-carboxamide]",< 4.40
6,"CN(C)C(=O)c1cc(NCc2cccc(C#N)c2)cc2c(Nc3ccc(F)c(Cl)c3)c(C#N)cnc12 [Example 85, 4-(3-chloro-4-fluorophenylamino)-3-cyano-6-(3-cyanobenzylamino)-N,N-dimethylquinoline-8-carboxamide]",6.17
7,"CN(C)C(=O)c1cc(NCc2ccc(C#N)cc2)cc2c(Nc3ccc(F)c(Cl)c3)c(C#N)cnc12 [Example 86, 4-(3-chloro-4-fluorophenylamino)-3-cyano-6-(4-cyanobenzylamino)-N,N-dimethylquinoline-8-carboxamide]",5.96
8,"CN(C)C(=O)c1cc(NCc2cnc[nH]2)cc2c(Nc3ccc(F)c(Cl)c3)c(C#N)cnc12 [Example 87, 6-((1H-imidazol-5-yl)methylamino)-4-(3-chloro-4-fluorophenylamino)-3-cyano-N,N-dimethylquinoline-8-carboxamide]",6.89
9,"CN(C)C(=O)c1cc(NCc2ccc(CO)o2)cc2c(Nc3ccc(F)c(Cl)c3)c(C#N)cnc12 [Example 88, 4-(3-chloro-4-fluorophenylamino)-3-cyano-6-((5-(hydroxymethyl)furan-2-yl)methylamino)-N,N-dimethylquinoline-8-carboxamide]",6.60
10,"CN(C)C(=O)c1cc(NCc2ccn[nH]2)cc2c(Nc3ccc(F)c(Cl)c3)c(C#N)cnc12 [Example 89, 6-((1H-pyrazol-5-yl)methylamino)-4-(3-chloro-4-fluorophenylamino)-3-cyano-N,N-dimethylquinoline-8-carboxamide]",6.54
11,"Cc1cc(CNc2cc(C(=O)N(C)C)c3ncc(C#N)c(Nc4ccc(F)c(Cl)c4)c3c2)n(C)n1 [Example 90, 4-(3-chloro-4-fluorophenylamino)-3-cyano-6-((1,3-dimethyl-1-H-pyrazol-5-yl)methylamino)-N, N-dimethylquinoline-8-carboxamide]",5.77
12,"CN(C)C(=O)c1cc(NCc2ccccn2)cc2c(Nc3ccc(F)c(Cl)c3)c(C#N)cnc12 [Example 91, 4-(3-chloro-4-fluorophenylamino)-3-cyano-N,N-dimethyl-6-(pyridin-2-ylmethylamino)quinoline-8-carboxamide]",6.44
13,"Cc1cccc(CNc2cc(C(=O)N(C)C)c3ncc(C#N)c(Nc4ccc(F)c(Cl)c4)c3c2)c1 [Example 92, 4-(3-chloro-4-fluorophenylamino)-3-cyano-N,N-dimethyl-6-(3-methylbenzylamino)quinoline-8-carboxamide]",< 4.40
14,"CC(C)NC(=O)c1cc(NCc2cccnc2)cc2c(Nc3ccc(F)c(Cl)c3)c(C#N)cnc12 [Example 93, 4-(3-chloro-4-fluorophenylamino)-3-cyano-N-isopropyl-6-(pyridin-3-ylmethylamino)quinoline-8-carboxamide]",< 4.40
